Data taken from PMC11904948, “Peptide‐Drug Conjugate for Therapeutic Reprogramming of Tumor‐Associated Macrophages in Breast Cancer” (Advanced Science, 2025).

Tests used:
Assay type in all cases: cell-based
[1] = test system: mouse bone marrow‐derived macrophages (BMDM); test: Phagocytosis of live 4T1-GFP cancer cells by BMDM; conditions: Balb/c BMDM, 10 µM 4 h, washed, 48 h, then 2 h with 4T1-GFP cells, n = 3
Method: We then analyzed if MACTIDE‐V affected the phagocytic activity of BMDM in vitro.
For the live 4T1‐GFP phagocytosis assay, 4T1‐GFP cells were cultured in RPMI1640 supplemented with 10% (v/v) FBS and 1% penicillin/streptomycin at 37 °C, 5% CO2. BMDM were seeded on Ibidi plates (Ibidi, cat# 80821) and at day 5 were treated with MACTIDE and conjugates as previously described (10 µM during 4h, followed by washing with media). Then, 48h later, the BMDM were incubated for 2 h with 2×10^5 4T1‐GFP cells (the area of the wells is 1 cm^2). Then, the supernatant was removed, and the wells were washed with media and then with PBS. Then, the cells were fixed with ice‐cold acetone for 10 min. Fixed cells were then washed with PBS, permeabilized with PBS‐0.2% Triton for 10 min and washed with PBS‐T (PBS+0.05% Tween‐20 (v/v)), and then incubated with blocking buffer (5% BSA (w/v), 5% FBS (v/v) in PBS‐T) for 1 h at room temperature. […] The mean GFP signal intensity was quantified from the images using ImageJ and normalized to the amount of DAPI^+ nuclei.
Figure S4. […] Scale bars= 50µm.The mean GFP signal intensity was quantified from the images using ImageJ and normalized to the amount of DAPI^+ nuclei (right panel). […]

[2] = test system: IL‐4‐stimulated primary human macrophages; test: In vitro photodynamic therapy, MTT viability, IL-4-stimulated macrophages; conditions: 30 µM 1 h 37 °C, washed
Source text: (§1) We next coupled MACTIDE to the photosensitizer Verteporfin, intending to deplete CD206^+ TAM using photodynamic therapy (PDT). To this end, carboxy‐Verteporfin was coupled to the N‐terminus of MACTIDE, a construct referred to as “MACTIDE‐V” (Figure 5A). We performed in vitro photodynamic therapy with MACTIDE‐V on primary human macrophages stimulated with IL‐4 or LPS + IFNγ.
(§2) Figure 5 In vitro and in vivo photodynamic therapy with MACTIDE‐V. A) Structure of MACTIDE‐V. B) MACTIDE‐V, CtrlPep‐V, and DOX were incubated with primary human macrophages (obtained from monocytes derived from human blood buffy coat) at 30 µM for 1 h at 37 °C, followed by 2 washes with media. Then, the groups shown in pink were irradiated with 10 J cm^−2 (irradiance: 170 mW cm^−2, spot diameter: 0.5 cm). […] Peptide‐V conjugates were administered i.p. at a dose of 30 nmol (1 mg Kg^−1 in Verteporfin). For the irradiated groups, 4 h after administration of conjugates or PBS, the mice were irradiated with 100 J cm^−2; shown is primary tumor volume progression during treatment. Gray arrows indicate injection days. D) Bodyweight during the treatment as % of the initial one. E) Representative mIHC images of PBS, CtrlPep‐V, and MACTIDE‐V‐treated tumors, 20X magnification, scale bar = 100 µm, white triangles point to Foxp3^+ cells. F) CD8^+ T cells, CD4^+ T cells, and Treg density, n = 6 mice/group, with every dot representing the mean cell density of each tumor obtained from 20 images. G) CD8^+ T cells density in CK8^+‐dense tumor regions. n = 5 mice/group, with every dot representing the mean cell density of each tumor obtained from 20 images. Median ± interquartile range. One‐way ANOVA with multiple comparisons, ^* p ≤ 0.05, ^** p ≤ 0.01.
(§3) Human peripheral mononuclear cells (PBMCs) were purified from human blood buffy coats following the protocol described previously.^[ [24] ^] […] Crystal formation was monitored every 20–30 min to not oversaturate the absorbance values.

[3] = test system: LPS + IFNγ‐stimulated primary human macrophages; test: In vitro photodynamic therapy, MTT viability, LPS + IFNγ-stimulated macrophages; conditions: 30 µM 1 h 37 °C, washed
Source text: as §1, §2, §3

[4] = with or without 10 J cm^−2, 48 h
[5] = irradiated 10 J cm^−2 (689 nm), 48 h, n = 6

Substance | phagocytosis of live 4T1 cancer cells labeled with GFP [1] | toxicity with and without irradiation [2, 4] | toxicity with and without irradiation [3, 4] | macrophages depleted, irradiated [2, 5] [%] | toxicity, non‐irradiated ([2]; no irradiation, 48 h, n = 6) | macrophages depleted, irradiated [3, 5] [%] | toxicity, non‐irradiated ([3]; no irradiation, 48 h, n = 6)
Vert‐Ahx‐AKPCGS‐OH [CtrlPep‐V, reference compound] | negligible phagocytosis | no toxicity | no toxicity |  |  |  | 
Vert‐Ahx‐G(CTKSIPPIC)SPGAK‐OH (disulfide) [MACTIDE‐V] | cancer cell phagocytosis only in the MACTIDE‐V treated BMDM |  |  | 80 | no toxicity | 40 | no toxicity
